Substitutions are numbered along the chain they refer to. Values joined by “and” are separate entries in the source; they are usually repeats but may differ in a detail not shown here. Identical values can stand only once. Like-named read-outs stand apart in the source and are kept apart here.
B1: Mouse TRPV3 (vanilloid-subfamily member 3 TRP channel) (natural protein)
chain: AHSKEMAPLMGKRTTAPGGNPVVLTEKRPADLTPTKKSAHFFLEIEGFEPNPTVTKTSPPIFSKPMDSNIRQCLSGNCDDMDSPQSPQDDVTETPSNPNSPSANLAKEEQRQKKKRLKKRIFAAVSEGCVEELRELLQDLQDLCRRRRGLDVPDFLMHKLTASDTGKTCLMKALLNINPNTKEIVRILLAFAEENDILDRFINAEYTEEAYEGQTALNIAIERRQGDITAVLIAAGADVNAHAKGVFFNPKYQHEGFYFGETPLALAACTNQPEIVQLLMENEQTDITSQDSRGNNILHALVTVAEDFKTQNDFVKRMYDMILLRSGNWELETMRNNDGLTPLQLAAKMGKAEILKYILSREIKEKPLRSLSRKFTDWAYGPVSSSLYDLTNVDTTTDNSVLEIIVYNTNIDNRHEMLTLEPLHTLLHTKWKKFAKYMFFLSFCFYFFYNITLTLVSYYRPREDEDLPHPLALTHKMSWLQLLGRMFVLIWATCISVKEGIAIFLLRPSDLQSILSDAWFHFVFFVQAVLVILSVFLYLFAYKEYLACLVLAMALGWANMLYYTRGFQSMGMYSVMIQKVILHDVLKFLFVYILFLLGFGVALASLIEKCSKDKKDCSSYGSFSDAVLELFKLTIGLGDLNIQQNSTYPILFLFLLITYVILTFVLLLNMLIALMGETVENVSKESERIWRLQRARTILEFEKMLPEWLRSRFRMGELCKVADEDFRLCLRINEVKWTEWKTHVSFLNEDPGPIRRTADLNKIQDSSRSNSKTTLYAFDELDEFPETSV
notes: TRPV3, mouse; model built for residues 118-756, leaving out 462-470 and 611-621

Columns and labels:
F666A mutant TRPV3 = biological target: T1, F666A mutant TRPV3 (Mus musculus, UniProt Q8K424, F666A); test: Fura-2 ratiometric Ca2+ uptake, inhibition of 2-APB-evoked response; format: cell-based; settings: for F340/F380 change normalized to maximal value in the absence of osthole: F666A
T1 construct: expressed in transfected cells; host or cells: HEK 293 S GnTI- cells (baculovirus transduction)
T1 sequence (Q8K424 1-791 F666A): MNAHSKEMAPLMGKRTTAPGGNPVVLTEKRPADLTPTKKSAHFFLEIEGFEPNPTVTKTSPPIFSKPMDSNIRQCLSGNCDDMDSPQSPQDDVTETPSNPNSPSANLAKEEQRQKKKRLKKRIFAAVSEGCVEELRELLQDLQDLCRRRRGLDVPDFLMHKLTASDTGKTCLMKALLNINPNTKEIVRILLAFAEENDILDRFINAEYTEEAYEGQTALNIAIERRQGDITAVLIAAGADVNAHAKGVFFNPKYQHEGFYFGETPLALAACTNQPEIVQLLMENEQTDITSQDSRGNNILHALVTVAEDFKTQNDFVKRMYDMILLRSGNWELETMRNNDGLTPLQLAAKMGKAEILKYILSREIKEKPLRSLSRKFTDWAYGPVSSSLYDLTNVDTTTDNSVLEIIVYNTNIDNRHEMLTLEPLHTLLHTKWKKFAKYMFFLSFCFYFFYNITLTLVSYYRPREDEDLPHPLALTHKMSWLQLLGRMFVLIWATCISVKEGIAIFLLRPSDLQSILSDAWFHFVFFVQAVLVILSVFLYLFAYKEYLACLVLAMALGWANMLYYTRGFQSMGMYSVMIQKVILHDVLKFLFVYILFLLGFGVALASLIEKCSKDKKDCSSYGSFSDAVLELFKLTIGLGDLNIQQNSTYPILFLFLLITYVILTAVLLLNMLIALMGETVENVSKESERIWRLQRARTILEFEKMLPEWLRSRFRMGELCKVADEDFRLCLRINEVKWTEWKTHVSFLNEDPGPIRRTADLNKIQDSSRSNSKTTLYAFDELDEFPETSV
Description: GFP-free C-terminally strep-tagged wild-type TRPV3, TRPV3-Y564A, TRPV3-Y594A, TRPV3-F633A, TRPV3-I663W, and TRPV3-F666A were expressed in HEK 293 S GnTI^− cells as previously described[41],[42],[53]. In short, 48 h after transduction, 1-ml aliquots of cell suspension were collected by centrifugation at 550 g for 5 min using an Eppendorf 5424 centrifuge. The cells were resuspended in the pre-warmed modified HEPES-buffered saline (HBS) containing 118 mM NaCl, 4.8 mM KCl, 1 mM MgCl2, 5 mM D-glucose, and 10 mM HEPES pH 7.4 and 5 μg/ml Fura-2 AM (Thermo Fisher Scientific) and incubated for 45 min at 37 °C. The Fura-2-loaded cells were then centrifuged for 5 min at 550 g, resuspended in the pre-warmed, modified HBS and incubated again for 30 min at 37 °C in the dark. The cells were subsequently pelleted and washed twice in the modified HBS. The washed cell pellets were kept on ice in the dark before taking an aliquot for fluorescence measurements. […] We used the lower CaCl2 concentration than before[42],[28] (2.5 mM) to minimize non-specific effects, which often appeared as a drift in the Fura-2 signal at high Ca^2+ concentration, presumably due to cell death as a result of calcium overload. Fluorescence measurements were conducted using a QuantaMaster 40 spectrofluorometer (Photon Technology International) at room temperature in a quartz cuvette under constant stirring. After 60 s since the beginning, the recording was paused and 2-APB was added. After the addition of 2-APB, the recording was continued for the additional 140 s. Changes in intracellular Ca^2+ were measured by taking the ratio of fluorescence emitted at 510 nm at the excitation wavelength of 340 nm and 380 nm. […] The data were processed using Origin 9.0 (OriginLab) software.

wild-type mouse TRPV3 = biological target: T2, wild-type mouse TRPV3 (Mus musculus, UniProt Q8K424); settings: cited from earlier work; for F340/F380 change normalized to maximal value in the absence of osthole: WT, published before
T2 construct: expressed in transfected cells; host or cells: HEK 293 S GnTI- cells (baculovirus transduction)
T2 sequence (Q8K424 1-791): T1 sequence (Q8K424 1-791 F666A) with A666F

[1] = biological target: the molecule itself; test: cryo-EM structure; TRPV3 reconstituted in cNW30 nanodiscs with soybean lipids; 150 mM NaCl, 20 mM Tris pH 8.0, 1 mM βME, 100 μM dyclonine plus 100 μM more before freezing; C4 symmetry, 3.16 Å
[2] = osthole Conc 1, single experiments

Row | Molecule | F340/F380 change normalized to maximal value in the absence of osthole (F666A mutant TRPV3; [2]) | F340/F380 change normalized to maximal value in the absence of osthole (F666A mutant TRPV3; osthole Conc 3, single experiments) | F340/F380 change normalized to maximal value in the absence of osthole (F666A mutant TRPV3; osthole Conc 10, single experiments) | F340/F380 change normalized to maximal value in the absence of osthole (F666A mutant TRPV3; osthole Conc 30, single experiments) | F340/F380 change normalized to maximal value in the absence of osthole (F666A mutant TRPV3; osthole Conc 100, single experiments) | IC50 (F666A mutant TRPV3; HEK 293 GnTI- cells, 200 µM 2-APB after pre-incubation with inhibitor, n = 3) | nHill of inhibition curve, F666A (F666A mutant TRPV3; logistic fit, n = 3) | F340/F380 change normalized to maximal value in the absence of osthole (wild-type mouse TRPV3; [2]) | F340/F380 change normalized to maximal value in the absence of osthole (wild-type mouse TRPV3; osthole Conc 2.5, single experiments) | F340/F380 change normalized to maximal value in the absence of osthole (wild-type mouse TRPV3; osthole Conc 5, single experiments) | F340/F380 change normalized to maximal value in the absence of osthole (wild-type mouse TRPV3; osthole Conc 8, single experiments) | F340/F380 change normalized to maximal value in the absence of osthole (wild-type mouse TRPV3; osthole Conc 12.5, single experiments) | F340/F380 change normalized to maximal value in the absence of osthole (wild-type mouse TRPV3; osthole Conc 18, single experiments) | F340/F380 change normalized to maximal value in the absence of osthole (wild-type mouse TRPV3; osthole Conc 25, single experiments) | F340/F380 change normalized to maximal value in the absence of osthole (wild-type mouse TRPV3; osthole Conc 50, single experiments) | nHill of osthole inhibition curve, wild-type TRPV3 (wild-type mouse TRPV3; n = 4, published before) | IC50 (wild-type mouse TRPV3; n = 4, published before, read-out: IC50, inhibition of wild-type TRPV3 by osthole) | stoichiometry N [1]
1 | COc1ccc2ccc(=O)oc2c1CC=C(C)C [osthole] | 1.064 and 1.053 and 0.962 | 0.8581 and 0.9473 and 0.9415 | 0.7679 and 0.9394 and 0.7809 | 0.5836 and 0.4944 and 0.6286 | 0.1362 and 0.1904 | 33.1 ± 3.8 µM | 1.37 ± 0.19 | 0.9502 and 0.9764 and 1.106 | 0.949 and 1.067 | 0.9795 and 0.8169 and 0.895 | 0.9193 and 0.8591 and 0.9872 | 0.6517 and 0.6914 and 0.735 | 0.5621 and 0.5685 and 0.5403 | 0.4148 and 0.5672 and 0.4994 | 0.161 and 0.164 and 0.15 and 0.2574 | 1.84 ± 0.14 | 20.5 ± 0.5 µM | –
2 | B1 | – | – | – | – | – | – | – | – | – | – | – | – | – | – | – | – | – | 4

From article PMC9120478 (Nature Communications, 2022)
